{
  "source": "ChEMBL document CHEMBL1123591",
  "about": "“Synthetic analogues of tetrahydrobiopterin with cofactor activity for aromatic amino acid hydroxylases” (1987)",
  "data": [
    {"test_system": "dihydropteridine reductase", "experiment": "Tested in isolated enzyme assay for its cofactor actidihydropteridine reductaseity against dihydropteridine reductase expressed as relatidihydropteridine reductasee dihydropteridine reductaseelocity", "units": {"Relative velocity": "%"}, "values": [
      {"smiles": "CCCCOCC1CNc2nc(N)nc(O)c2N1.Cl.Cl", "note": "(centres undefined)", "Relative velocity": 283}
    ]},
    {"test_system": "dihydropteridine reductase", "experiment": "Tested in isolated enzyme assay for its cofactor activity against dihydropteridine reductase expressed as relative velocity", "units": {"Relative velocity": "%"}, "values": [
      {"smiles": "CCOCC1CNc2nc(N)nc(O)c2N1.Cl.Cl", "note": "(centres undefined)", "Relative velocity": 419},
      {"smiles": "CC(C)OCC1CNc2nc(N)nc(O)c2N1.Cl.Cl", "note": "(centres undefined)", "Relative velocity": 277},
      {"smiles": "CC(O)C(O)C1CNc2nc(N)nc(O)c2N1.Cl.Cl", "note": "(centres undefined)", "Relative velocity": 100},
      {"smiles": "COCC1CNc2nc(N)nc(O)c2N1.Cl.Cl", "note": "(centres undefined)", "Relative velocity": 421},
      {"smiles": "CCCOCC1CNc2nc(N)nc(O)c2N1.Cl.Cl", "note": "(centres undefined)", "Relative velocity": 212},
      {"smiles": "CC(C)(C)OCC1CNc2nc(N)nc(O)c2N1.Cl.Cl", "note": "(centres undefined)", "Relative velocity": 222},
      {"smiles": "CC1(C)CNc2nc(N)nc(O)c2N1", "Relative velocity": 239},
      {"smiles": "CC1CNc2nc(N)[nH]c(=O)c2N1.Cl.Cl", "note": "(centres undefined)", "Relative velocity": 216}
    ]}
  ]
}
